Test results taken from paper PMC10614203, “Synthesis, Structure–Activity Relationships, Radiofluorination, and Biological Evaluation of [^18F]RM365, a Novel Radioligand for Imaging the Human Cannabinoid Receptor Type 2 (CB2R) in the Brain with PET” (Journal of Medicinal Chemistry, 2023).

What was measured:
[1] = In vivo metabolism, quantification of radiometabolites by radio-HPLC in brain and plasma; set-up: species or system mouse; conditions: female CD-1 mice, 30 min p.i., i.v.
Description: The good in vitro results obtained for [^18F]RM365 justified its further evaluation in vivo, and we proceeded with the investigation of radioligand metabolism in mouse. The brain as well as blood samples were obtained from two female CD-1 mice 30 min after intravenous administration of [^18F]RM365. About 90% of the radioactivity detected in the brain samples accounted for intact radioligand (Figure 8), while in blood plasma, the fraction of the intact radioligand represented only 55% of the detected radioactivity (Figure 8B). Accordingly, the absence of a significant fraction of radiometabolites of [^18F]RM365 in the brain indicates the suitability of this radioligand for neuroimaging.
Figure 8 In vivo metabolism of [^18F]RM365. […]
The samples were further processed for subsequent radio-chromatographic analyses. […] The activities of supernatants and precipitates were measured in an γ-counter (1480 WIZARD, Fa. PerkinElmer), and the extraction efficiencies were calculated as the ratio of the radioactivity in the supernatant to the radioactivity in the original sample (supernatant + precipitate). The supernatants from both extractions were combined, concentrated at 70 °C under an argon stream up to a remaining volume of 100 μL, and subsequently analyzed by analytical radio-HPLC with a gradient system as applied in Section 5.2.2.

[2] = Lipophilicity log D7.4, shake flask method, n-octanol/PBS; format: physicochemical; conditions: n-octanol/PBS 0.01 M, pH 7.4, room temperature
Description: The most efficient protocol for the manual radiosynthesis of [^18F]RM365 was transferred to an automated synthesis module (Elysia-Raytest radiosynthesizer). For the biological evaluation, [^18F]RM365 was obtained with a moderate radiochemical yield of about 5% and high radiochemical purities (>99%), molar activity of about 80 GBq/μmol in a total synthesis time of 60 min (n = 6) starting with activities ranging from 8 to 13 GBq. […] RP and chiral HPLC analysis of the final product coeluted with the corresponding reference compound RM365 confirmed the identity and enantiopurity of the radioligand (Figure 5B). A log D7.4 of 3.0 ± 0.1 was determined by the shake flask method.[80],[81]
Log D7.4 of [^18F]RM365 was experimentally determined in n-octanol/PBS, 0.01 M, pH 7.4, at room temperature by the shake flask method. The measurement was performed twice in triplicate.[87]

[3] = biological target: T1, rat CB2R (Rattus norvegicus, UniProt Q9QZN9); test: Homologous competition binding of [18F]RM365 / RM365 on rat spleen homogenate
T1 construct: one spleen from a female SPRD rat expressing high levels of the receptor in the leukocytes; from tissue; host or cells: rat spleen (female SPRD rat; autoradiography also described with male F433 rats)
T1 sequence (Q9QZN9 1-360): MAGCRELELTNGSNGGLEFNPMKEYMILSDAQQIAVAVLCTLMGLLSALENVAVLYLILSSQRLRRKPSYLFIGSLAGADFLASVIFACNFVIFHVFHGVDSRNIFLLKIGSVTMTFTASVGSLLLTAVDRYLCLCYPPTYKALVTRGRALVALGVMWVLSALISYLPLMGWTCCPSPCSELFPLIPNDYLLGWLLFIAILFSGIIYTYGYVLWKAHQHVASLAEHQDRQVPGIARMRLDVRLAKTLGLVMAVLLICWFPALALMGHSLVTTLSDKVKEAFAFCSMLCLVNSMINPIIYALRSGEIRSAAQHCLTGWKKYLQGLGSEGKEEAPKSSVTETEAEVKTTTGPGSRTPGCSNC
Excerpt: To complement the indirect determination of the affinity of RM365 toward the CB2R in vitro, we performed a direct binding study with the radiofluorinated ligand using preparations of CHO cells stably transfected with the cloned human receptor and one spleen from a female SPRD rat expressing high levels of the receptor in the leukocytes.[12] The results of the homologous competition study shown in Figure 6 confirm the good affinity of [^18F]RM365 toward the human CB2R with a KD value of about 2 nM. […] Furthermore, the measurement signal obtained from the incubation of [^18F]RM365 with the homogenate of rat spleen was in the range of the values obtained for the nonspecific binding of the radioligand toward the preparation of CB2R-transfected CHO cells. We conclude that RM365 binds the rat CB2R with lower affinity than the human CB2R but expect no significant interactions of the radioligand with nonspecific binding sites.[82] […]
The nonspecific binding of the respective radioligand was determined by coincubation with CP55,940 (final concentration 10^–5 M). The normalized values of bound activity (% specific binding) were calculated and plotted vs the logarithm of the concentration of the respective test compound. […]

intact radioligand, fraction of radioactivity in blood plasma [1]: 55%
logD [2]: 3 ± 0.1
Kd ([3]; rat spleen homogenate, read-out: KD for the rCB2R): > 10 µM
specific binding to rat spleen homogenates, in words ([3]; spleen of a female SPRD rat): no detectable interaction
SMILES: CC1(C)Cc2ccc(C#N)cc2[C@@H]1NC(=O)c1cc2cc([18F])ccc2[nH]1 [[^18F]RM365]
